Experimental data reported in article PMC9525273 (Nature Communications, 2022).
Values joined by “and” are separate entries in the source; they are usually repeats but may differ in a detail not shown here. Equal values may be shown once. Read-outs that look alike come from different tables or passages of the source.

How the values were obtained:
Format in all cases: cell-based, Plasmodium falciparum
[1] = tested on: Dd2-Polδ-PfATP4^G358S parasites; assay: P. falciparum proliferation assay (72 h, fluorescent DNA-intercalating dye); conditions: for IC50: Dd2-Polδ-PfATP4G358S parasites
Protocol: (§1) For experiments with all other parasites, the effects of compounds of interest on parasite proliferation was measured in 96-well plates containing serial dilutions of the compounds in culture medium, with a fluorescent DNA-intercalating dye used to detect surviving parasites. The assays were initiated with erythrocytes infected with predominantly ring-stage parasites, and the starting parasitaemia and haematocrit were both 1%.

Dd2-Polδ parasites = assay: as above; conditions: Dd2-Polδ parasites
Protocol: as §1

NF54^CTL parasites = assay: P. falciparum proliferation assay (72 h, flow cytometry, SYBR Green I/MitoTracker)
Protocol: (§2) For the NF54-based lines and Dd2-B2-PfATP4^G358S and its parent, assays were initiated with cultures containing predominantly ring-stage parasites with a parasitaemia of 0.3% and a haematocrit of 1%. All assays using NF54 were performed in culture media containing 10% O + human serum. The duration of the assays was 72 h and the concentration of DMSO was <0.5% (v/v). Serial dilutions of the test compounds were performed using a Tecan D300e digital dispenser, with parasite cultures added manually. Parasite survival was assessed by flow cytometry on an Intellicyt iQue3 (Essen Bioscience), with 1× SYBR Green I (Invitrogen) and 200 nM MitoTracker Deep Red FM (Invitrogen) used to stain the nucleus and the mitochondria in live parasites, respectively. The gating strategy used to quantify parasite survival, performed using FlowJo version 10 (FlowJo LLC.), is illustrated in Supplementary Fig. 9. IC50 and IC90 values were calculated by linear interpolation of the dose-response data.

NF54^G358S-2 parasites = assay: as above
Protocol: as §2

NF54^G358S-1 parasites = assay: as above; conditions: for FC (IC50) / FC (IC90): NF54G358S-1 compared to NF54WT
Protocol: as §2

[2] = tested on: parasite lines with a G358S mutation in PfATP4; assay: P. falciparum proliferation assays, statements on all lines with the G358S mutation; conditions: G358S lines vs PfATP4 wild-type controls
Protocol: as §2, with “Two types of parasite proliferation assays were employed in this study, with both yielding highly consistent results. For” for “For”
as §1, with “1%. […] Fluorescence was measured using a FLUOstar OPTIMA plate reader (BMG LABTECH), with OPTIMA version 2.20R2 and MARS Data Analysis Software version 3.01 R2 (BMG LABTECH).” for “1%.”

NF54^WT parasites = assay: microbe, parasite or virus in culture
Protocol: as §2

[3] = individual experiments, read-out: IC50 values
[4] = mean of the experiments, read-out: IC50 values, MEAN
[5] = NF54CTL parasites, individual experiments, read-out: IC50 values
[6] = NF54G358S-2 parasites, individual experiments, read-out: IC50 values
[7] = NF54G358S-2 parasites, individual experiments, read-out: IC90 values
[8] = NF54G358S-1 parasites, individual experiments, read-out: IC50 values
[9] = NF54G358S-1 parasites, individual experiments, read-out: IC90 values
[10] = NF54WT parasites, individual experiments, read-out: IC50 values
[11] = NF54WT parasites, individual experiments, read-out: IC90 values

Structure (SMILES): CCOC(=O)C1=CN(C)C=C(C(=O)OCC)C1c1cc(Br)c(OCC)c(OC)c1 [MMV006656]
- IC50 [1, 3]: 1560 nM and 1990 nM and 1300 nM and 2350 nM
- IC50 [1, 4]: 1800 nM
- IC50 fold higher than that of Dd2-Polδ parent ([1]; Dd2-Polδ-PfATP4G358S vs Dd2-Polδ, mean ± SEM): 5.7 ± 1.3 fold
- IC50 (Dd2-Polδ parasites; [3]): 435 nM and 243 nM and 394 nM and 305 nM
- IC50 (Dd2-Polδ parasites; [4]): 344 nM

Structure (SMILES): CCNCc1cc(Nc2ccnc3cc(Cl)ccc23)ccc1O [Monodesethyl‐amodiaquine]
- FC (IC50) (NF54^CTL parasites; NF54CTL compared to NF54WT): 1.0 fold
- FC (IC90) (NF54^CTL parasites; NF54CTL compared to NF54WT): 1.5 fold
- FC (Mean IC90/IC50) (NF54^CTL parasites; NF54CTL compared to NF54WT): 1.5 fold
- IC50 (NF54^CTL parasites; [5]): 6.5 nM and 6.8 nM and 7.4 nM and 7.2 nM
- IC50 (NF54^CTL parasites; NF54CTL parasites, mean of the experiments, read-out: IC50 values, MEAN): 7 nM
- FC (IC50) (NF54^G358S-2 parasites; NF54G358S-2 compared to NF54WT): 1.0 fold
- FC (IC90) (NF54^G358S-2 parasites; NF54G358S-2 compared to NF54WT): 1.3 fold
- FC (Mean IC90/IC50) (NF54^G358S-2 parasites; NF54G358S-2 compared to NF54WT): 1.3 fold
- IC50 (NF54^G358S-2 parasites; [6]): 5.9 nM and 7.4 nM and 7 nM
- IC90 (NF54^G358S-2 parasites; [7]): 7.97 nM and 13.8 nM and 13.5 nM
- IC50 (NF54^G358S-2 parasites; NF54G358S-2 parasites, mean of the experiments, read-out: IC50 values, MEAN): 6.8 nM
- IC90 (NF54^G358S-2 parasites; NF54G358S-2 parasites, mean of the experiments, read-out: IC90 values, MEAN): 12.2 nM
- IC50 (NF54^G358S-1 parasites; NF54G358S-1, 10% human serum, read-out: IC50 ± SEM): 7.6 ± 0.8 nM
- FC (IC50) (NF54^G358S-1 parasites): 1.1 fold
- FC (IC90) (NF54^G358S-1 parasites): 1.4 fold
- IC50 (NF54^G358S-1 parasites; [8]): 5.6 nM and 7.6 nM and 8.1 nM and 9.2 nM
- IC90 (NF54^G358S-1 parasites; [9]): 7.37 nM and 14 nM (2×) and 14.3 nM
- IC50 (NF54^G358S-1 parasites; NF54G358S-1 parasites, mean of the experiments, read-out: IC50 values, MEAN): 7.6 nM
- IC90 (NF54^G358S-1 parasites; NF54G358S-1 parasites, mean of the experiments, read-out: IC90 values, MEAN): 12.4 nM
- effect of the G358S mutation in PfATP4 on parasite susceptibility [2]: no effect
- IC50 (NF54^WT parasites; [10]): 10.5 nM
- IC90 (NF54^WT parasites; [11]): 7.38 nM and 7.32 nM and 7.45 nM and 14.6 nM
- IC50 (NF54^WT parasites; NF54WT parasites, mean of the experiments, read-out: IC50 values, MEAN): 6.9 nM
- IC90 (NF54^WT parasites; NF54WT parasites, mean of the experiments, read-out: IC90 values, MEAN): 9.2 nM
- FC (IC50) (NF54^WT parasites; NF54WT, reference line): 1.0 fold
- FC (IC90) (NF54^WT parasites; NF54WT, reference line): 1.0 fold
- FC (Mean IC90/IC50) (NF54^WT parasites; NF54WT, reference line): 1.0 fold
- IC50 (NF54^WT parasites; read-out: IC50 values): 5.7 nM

Structure (SMILES): Clc1ccc2c(N3CCN(CCCN4CCN(c5ccnc6cc(Cl)ccc56)CC4)CC3)ccnc2c1 [Piperaquine]
- FC (IC50) (NF54^CTL parasites; NF54CTL compared to NF54WT): 0.9 fold
- FC (IC90) (NF54^CTL parasites; NF54CTL compared to NF54WT): 1.2 fold
- IC50 (NF54^CTL parasites; [5]): 20.9 nM and 14.5 nM and 11.8 nM
- IC90 (NF54^CTL parasites; NF54CTL parasites, individual experiments, read-out: IC90 values): 37.3 nM and 28.1 nM and 26.3 nM
- IC50 (NF54^CTL parasites; Plasmodium falciparum, NF54, NF54CTL parasites, individual experiments, read-out: IC50 values): 21.9 nM
- IC90 (NF54^CTL parasites; Plasmodium falciparum, NF54, NF54CTL parasites, individual experiments, read-out: IC90 values): 45.9 nM
- IC50 (NF54^CTL parasites; Plasmodium falciparum, NF54, NF54CTL parasites, mean of the experiments, read-out: IC50 values, MEAN): 17.3 nM
- IC90 (NF54^CTL parasites; Plasmodium falciparum, NF54, NF54CTL parasites, mean of the experiments, read-out: IC90 values, MEAN): 34.4 nM
- FC (IC50) (NF54^G358S-2 parasites; NF54G358S-2 compared to NF54WT): 0.9 fold
- FC (IC90) (NF54^G358S-2 parasites; NF54G358S-2 compared to NF54WT): 1.1 fold
- IC50 (NF54^G358S-2 parasites; [6]): 24 nM and 13.5 nM and 13.3 nM
- IC90 (NF54^G358S-2 parasites; [7]): 48.2 nM and 27.4 nM and 26.7 nM
- IC50 (NF54^G358S-2 parasites; Plasmodium falciparum, NF54, NF54G358S-2 parasites, individual experiments, read-out: IC50 values): 21.3 nM
- IC90 (NF54^G358S-2 parasites; Plasmodium falciparum, NF54, NF54G358S-2 parasites, individual experiments, read-out: IC90 values): 30.8 nM
- IC50 (NF54^G358S-2 parasites; Plasmodium falciparum, NF54, NF54G358S-2 parasites, mean of the experiments, read-out: IC50 values, MEAN): 18 nM
- IC90 (NF54^G358S-2 parasites; Plasmodium falciparum, NF54, NF54G358S-2 parasites, mean of the experiments, read-out: IC90 values, MEAN): 33.3 nM
- FC (IC50) (NF54^G358S-1 parasites): 0.9 fold
- FC (IC90) (NF54^G358S-1 parasites): 1.1 fold
- IC50 (NF54^G358S-1 parasites; [8]): 22.2 nM and 14.8 nM and 12.9 nM
- IC90 (NF54^G358S-1 parasites; [9]): 43.7 nM and 27.9 nM and 26.4 nM
- IC50 (NF54^G358S-1 parasites; Plasmodium falciparum, NF54, NF54G358S-1 parasites, individual experiments, read-out: IC50 values): 20.8 nM
- IC90 (NF54^G358S-1 parasites; Plasmodium falciparum, NF54, NF54G358S-1 parasites, individual experiments, read-out: IC90 values): 34.2 nM
- IC50 (NF54^G358S-1 parasites; Plasmodium falciparum, NF54, NF54G358S-1 parasites, mean of the experiments, read-out: IC50 values, MEAN): 17.7 nM
- IC90 (NF54^G358S-1 parasites; Plasmodium falciparum, NF54, NF54G358S-1 parasites, mean of the experiments, read-out: IC90 values, MEAN): 33 nM
- effect of the G358S mutation in PfATP4 on parasite susceptibility [2]: no effect
- IC50 (NF54^WT parasites; [10]): 22 nM and 14.7 nM and 19.4 nM
- IC90 (NF54^WT parasites; [11]): 29.8 nM and 27.5 nM and 28.8 nM
- FC (IC50) (NF54^WT parasites; NF54WT, reference line): 1.0 fold
- FC (IC90) (NF54^WT parasites; NF54WT, reference line): 1.0 fold
- IC50 (NF54^WT parasites; Plasmodium falciparum, NF54, NF54WT parasites, individual experiments, read-out: IC50 values): 22.7 nM
- IC90 (NF54^WT parasites; Plasmodium falciparum, NF54, NF54WT parasites, individual experiments, read-out: IC90 values): 30 nM
- IC50 (NF54^WT parasites; Plasmodium falciparum, NF54, NF54WT parasites, mean of the experiments, read-out: IC50 values, MEAN): 19.7 nM
- IC90 (NF54^WT parasites; Plasmodium falciparum, NF54, NF54WT parasites, mean of the experiments, read-out: IC90 values, MEAN): 29 nM
